In the METLIN SMRT retention time set (Domingo-Almenara et al. 2019):

Test: gradient 5% acetonitrile 3 min, to 50% in 2 min, to 85% in 15 min, held 3 min, 100 µL/min
Details: column: Zorbax Extend-C18 2.1 x 50 mm; eluents: water / acetonitrile, 0.1% formic acid
Outline: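 Over 3 months, pure standards in mixtures of ~100 molecules were run by HPLC coupled to a quadrupole time-of-flight mass spectrometer in positive and negative ionization mode. The column was a Zorbax Extend-C18 (2.1 × 50 mm, 1.8 μm) at 100 μL/min, eluted with water and acetonitrile each holding 0.1% formic acid, with 40 μL dead and 900 μL dwell volumes. Retention time was determined from adduct peaks chosen by software and checked manually.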

| SMILES | RP-LC retention time [s] |
| --- | --- |
| CCN1CCN(CCCNC(=O)C2Cn3cccc3C(=O)N2CC(C)C)CC1 (configuration not stated) | 558 |
| COc1cccc(NC(=O)c2sc(C)nc2-c2ccc([N+](=O)[O-])cc2)c1 | 849 |
| Cc1cc(C)c(NC(=O)CN2C(=O)CC(c3cccs3)=Nc3ccccc32)c(C)c1 | 954 |
| Cc1nnc(CNC(=O)CCc2c[nH]c3ccccc23)o1 | 622 |
| Cc1nn(C(C)C(=O)NCCCOC(C)C)c(=O)c2c(C)n(-c3ccccc3)nc12 (configuration not stated) | 823 |
| O=C(CN1C(=O)CCCc2cc(S(=O)(=O)N3CCCC3)ccc21)NC1CCCCCCC1 | 915 |
| CCc1cccc(NC(=O)C2CCCN(c3ncnc4c3nc3n4CCCCC3)C2)c1 (configuration not stated) | 758 |
| CCOc1ccc(OCC)c(NC(=O)CSc2nnc3c4cc(-c5ccc(OC)cc5)nn4ccn23)c1 | 1010 |
| COc1ccc(-c2nc3cnccn3c2Nc2cc(C)cc(C)c2)cc1 | 952 |
| O=C(Cn1cnc2nc3c(cc2c1=O)CCCC3)Nc1ccc(Cl)cc1F | 778 |
| Cc1cc(C)c(CNC(=O)c2ccc3c(c2)CC(=O)N3C)c(C)c1 | 830 |
| Clc1ccc(Cl)c(-c2ccc(CNCc3cccnc3)o2)c1 | 664 |
| CCN(CC)CCCNC(=O)c1noc2c1CCCC2 | 607 |
| CCOC(=O)CCC(=O)NCCN1CCN(c2ccccc2)CC1 | 564 |
| COc1cc(-c2nc3ncccn3c2Nc2ccc(C)c(C)c2)ccc1O | 683 |
| Cc1noc(-c2ccc(-n3cnc(C(=O)NCC4CC4)c3)nc2)n1 | 727 |
| Cc1cccc(C)c1NC(=O)Cn1ncc2c(c1=O)N(CC1CC1)C(=O)CS2 | 784 |
| CCOc1ccccc1NC(=O)c1cnn(-c2ccc(Br)cc2)c1 | 1120 |
| O=C(Cn1cccc1-c1nnc(-c2ccccc2)o1)Nc1ccc2c(c1)OCCO2 | 897 |

| SMILES | RP-LC retention time [s] |
| --- | --- |
| Cc1ccc2[nH]cc(NC(=O)NCCN(C)C)c(=O)c2c1 | 563 |
| CCS(=O)(=O)N1CC(=O)N(c2cccc(C)c2C)C(C)(C(=O)NCc2ccc(F)cc2)C1 (configuration not stated) | 848 |
| COC(=O)c1ccc2c(c1)N(Cc1cccc(F)c1)C(=O)CS2=O (configuration not stated) | 744 |
| CCC(C)NC(=O)C1CCN(S(=O)(=O)c2cc(-c3noc(C)n3)cs2)CC1 (configuration not stated) | 797 |
| O=C1COc2ccc(-c3csc(NC(=O)C4CCCO4)n3)cc2N1 (configuration not stated) | 715 |
| CC(C)NC(=O)N1CCC(c2noc(-c3ccccn3)n2)C1 (configuration not stated) | 648 |
| CCn1cnc(S(=O)(=O)N2CCC(C(=O)Nc3cccc4c3CCCC4)CC2)c1 | 792 |
| Cn1nc(N2CCC(NC(=O)CCn3cccn3)C2)ccc1=O (configuration not stated) | 582 |
| O=C(NC1CCCC1)c1cc(N2CCCC2)n2nccc2n1 | 908 |
| CCS(=O)(=O)N1CCC([C@@H](C)n2c(C)c(C(=O)NCc3c(OC)cc(C)[nH]c3=O)c3ccccc32)CC1 | 777 |
| CCOc1nc2ccccc2nc1N1CCCC(C(=O)Nc2cc(C)cc(C)c2)C1 (configuration not stated) | 1320 |
| Cc1ccnc(Nc2nc(-c3ccccc3)cs2)c1 | 790 |
| CCNC(=O)c1cc(C(C)(C)C)[nH]n1 | 647 |
| Cc1cc2c(cc1C)[n+](=O)c(C(=O)/C=C/c1ccccc1[N+](=O)[O-])c(C)n2[O-] | 806 |
| CC(=O)Nc1cc2c(cc1Sc1ccccc1Cl)n(C)c(=O)n2C | 781 |
| COc1ccc(-c2c(C)noc2NC(C)=O)cc1S(=O)(=O)N1CCCCCC1 | 788 |
| COc1cc([C@@H]2c3cc4c(cc3[C@H](O)C3COC(=O)[C@@H]32)OCO4)cc(OC)c1OC (some centres not stated) | 811 |
| Cc1oc(-c2[nH]ncc2C(=O)N(C)C)cc1S(=O)(=O)NCc1ccco1 | 622 |

Now from value to compound:

| RP-LC retention time [s] | SMILES |
| --- | --- |
| 832 | COc1ccc(NC(=O)Cn2c(=O)n(-c3ccc(F)cc3)c(=O)c3c2cc(C)n3C)c(OC)c1 |
| 973 | CCCOc1ccc(C2C(=O)N(C3CCCCC3)CC(=O)N2Cc2ccco2)cc1OC (configuration not stated) |
| 980 | CCOc1ccc(NS(=O)(=O)c2cc(C(=O)N3CCN(c4cccc(Cl)c4)CC3)n[nH]2)cc1 |
| 595 | N#CCn1nc2n(c1=O)CCN(C(=O)c1cc(C3CC3)[nH]n1)CC2 |
| 756 | CC(C)C(NC(=O)c1ccc(F)c(Cl)c1)C(=O)Nc1nc2ccccc2[nH]1 (configuration not stated) |
| 912 | O=C(Nc1ccccc1)c1cccc(N2CC(C(=O)Nc3cccc(Cl)c3)CC2=O)c1 (configuration not stated) |
| 1020 | COc1cc(OC)c(NC(=O)N2CCc3nc(-c4ccc(F)cc4)ncc3C2)cc1Cl |
| 755 | O=C(c1cnccn1)N1CCC(Oc2nc3ccccc3s2)CC1 |
| 1140 | CCOC(=O)C1CCN(c2ncccc2-c2nnc(-c3ccc(C)cc3)o2)CC1 |
| 633 | O=C(c1cn(-c2ccc(S(=O)(=O)N3CCCCC3)cc2)cn1)N1CCN(c2ccccn2)CC1 |
| 892 | CCOc1ccc(S(=O)(=O)N2CCCN(c3ccc(=O)n(-c4ccccc4)n3)CC2)cc1 |
| 646 | COc1cc(NC(=O)COc2ccc(-c3nnc4n3CCCC4)cc2)cc(OC)c1OC |
| 671 | CCCc1nc(-c2cc3ccccc3nc2N2CCN(C)CC2)no1 |
| 1100 | CC(C)c1ccc(N2C(=O)C3N=NN(Cc4nc(-c5ccccc5Cl)no4)C3C2=O)cc1 (configuration not stated) |
| 1050 | COC(=O)C1CCN(S(=O)(=O)c2ccc(Cl)c(-c3nnc(-c4ccc(OC)cc4)o3)c2)CC1 |
| 619 | CCOC(=O)N1CCN(C(=O)c2cccc(-n3cnnn3)c2)CC1 |
| 623 | O=C(NCc1ccccc1F)c1ccc2ncnc(N3CCCC3)c2c1 |
| 1000 | O=c1n(CCOc2ccccc2)nc2c(S(=O)(=O)N3CCN(c4ccc(F)cc4)CC3)cccn12 |
| 692 | COC(=O)c1ncn2c1C(=O)N(c1ccc(C)cc1)C(C)(C(=O)NCc1ccccc1)C2 (configuration not stated) |
| 759 | Cc1ccc(CN2CCN(CC(=O)Nc3ccc(Cl)cn3)C(=O)C2=O)cc1 |
| 828 | CCn1c(=O)c(N2CCC(C(=O)NCCc3ccco3)CC2)nc2cccnc21 |
| 1140 | O=C(c1cccc(Cl)c1)N1CCc2nc(-c3ccc(Cl)cc3)ncc2C1 |
| 738 | Cc1ccc(-c2ccc(N3CCCC(C(=O)NC4CCCC4)C3)nn2)cc1C (configuration not stated) |
| 846 | CCc1cccc(N(C)C(N)=Nc2cccc3ccccc23)c1 |
| 1260 | CCOc1ccc(NC(=O)Cc2c(C)nn(-c3nc(-c4ccc(Cl)cc4)cs3)c2C)cc1 |

| RP-LC retention time [s] | SMILES |
| --- | --- |
| 666 | O=C(c1cn(-c2ccc(S(=O)(=O)N3CCOCC3)cc2)cn1)N1CCN(c2ncccn2)CC1 |
| 746 | CN1c2ccccc2C(=O)NC12CCN(C(=O)c1ccc(F)c(F)c1)CC2 |
| 955 | Cc1ccc(C(=O)NC(C)CCc2ccccc2)cc1NC(=O)C1=CSCCO1 (configuration not stated) |
| 1180 | Cc1ccc(-c2csc(NC(=O)COc3ccc(Cl)cc3Cl)n2)cc1 |
| 1120 | COc1ccc(C(=O)Nc2nccnc2C(=O)NCC2CCCCC2)cc1 |
| 842 | Cc1nn(-c2nc(CC(=O)N3CCOCC3)cs2)c(C)c1Cl |
| 765 | CCN1CCN(c2cc(-c3ccc(F)cc3)c3c(n2)CCCCCC3)CC1 |
| 1090 | CCCc1nc(-c2ccccc2)oc1CC(=O)Nc1ccc(Cl)cc1C |
| 790 | O=C1CN(CCc2cccs2)C2CS(=O)(=O)CC2N1c1ccc(Cl)cc1 (configuration not stated) |
| 686 | Cc1ccnc(NS(=O)(=O)c2ccc(NC(=O)c3ccc(-n4cccn4)nn3)cc2)n1 |
| 661 | O=C(Cn1nc2nc(N3CCCC3)ccn2c1=O)N1CCN(c2ccc(F)cc2)CC1 |
| 1030 | Cc1c(C(=O)N2CCCC2)cnn1-c1cc(-c2nc(C(C)(C)C)no2)ccn1 |
| 771 | CCN1c2cc(F)ccc2C(=O)NC12CCN(C(=O)c1ccc3c(c1)OCO3)CC2 |
| 1200 | CCN(C(=O)c1ccc(OC)c(OC)c1)c1nc(-c2ccc(C)cc2)cs1 |
| 687 | CS(=O)(=O)N(C1CCOCC1)C1CN(C(=O)c2cc(F)ccc2F)C1 |
| 746 | O=C(C1CCCN(c2cnc3nccnc3c2)C1)N1CCN(c2ccc(F)cc2)CC1 (configuration not stated) |
| 733 | Cc1cc(-c2csc(S(=O)(=O)NCC3CCN(Cc4ccc(Cl)cc4)CC3)c2)on1 |
| 696 | COCc1nc2cccnc2n1C1CCN(C(=O)Nc2cc(OC)ccc2OC)CC1 |
| 731 | COc1ccc(CNC(=O)C2CCN(C(=O)C3Sc4ccccc4NC3=O)CC2)cc1 (configuration not stated) |
| 644 | O=C(Cc1cccc(Cl)c1)N1CCN(c2nc(CN3CCOCC3)cs2)CC1 |
| 653 | O=C(Cn1ccnc1-c1ccnc(N2CCSCC2)c1)NCc1ccc(F)cc1 |
| 670 | CC(C)Cn1c(=O)c(C(=O)NC2CCN(Cc3ccccc3)CC2)nc2cccnc21 |
| 726 | N#Cc1ccc(N2C=C(C(=O)N3CCOCC3)S(=O)(=O)c3ccc(F)cc32)cc1 |
| 935 | CN(C)c1ccc(C(=O)N2CCN(C(=O)c3nnn4c3COC(c3ccc(Cl)cc3)C4)CC2)cc1 (configuration not stated) |
| 833 | CC(=O)N1CCc2ccccc2C1C(=O)NCc1ccc(C)c(C)c1 (configuration not stated) |
